Experiments:
[1] = Sputum pourability (viscosity) test; set-up: key to pourability: “0”=no change; “+++>” dissolved
Protocol: The ability of sodium citrate solution to decrease the viscosity of sputum samples was examined as follows.
Three different sputum samples were employed: sample 1 was of a runny consistency; sample 2 was of an intermediate consistency; and sample 3 was of a heavy consistency. 100 ul samples were measured and transferred to assay tubes in duplicate (except for sample 1 which was in short supply) and placed in a 37° C. preheated Thermomixer. 10 ul of saline (0.9% NaCl) was used as a negative control. 5 ul, 10 ul, 50 ul or 100 ul of 55 mM aqueous sodium citrate solution was added per tube and mixed (400 rpm). Each tube was checked for pourability, or viscosity, at 30 sec, 90 sec and 150 sec by observing the movement of the sputum sample along the wall of the tube. The pourability of sample 3 was also checked at 5 minutes. The pourability was graded as follows: “0”=no change to “+++>” dissolved. The results of the study are shown below in Table 2 for samples 1-3, and in FIG. 1.

[2] = Safety and toxicity of nebulized sodium citrate in healthy volunteers (FEV1, FVC); format: in vivo, human; set-up: FEV1 / FVC: unit not given here; settings: for FEV1 / FVC: 5 minutes after treatment
Protocol: The safety and toxicity of aqueous sodium citrate solution was examined as follows. Treatment solutions were prepared by diluting 0 mM, 11 mM and 22 mM sodium citrate in 2 ml of water. The solutions were nebulized and administered to three healthy volunteers in successive treatments, with ascending sodium citrate dosage volumes and a 5 min break between each treatment. The forced expiratory volume in 1 sec (FEV1) and forced vital capacity (FVC) were recorded 5 minutes after each treatment.

[3] = average found with alpha dornase; cited from earlier work

**Q.** Which results are given for `O=C([O-])CC(O)(CC(=O)[O-])C(=O)[O-].[Na+].[Na+].[Na+]` [sodium citrate]?
**A.** pourability ([1]; 5 ul added to 100 ul sputum, sample 1 (runny), 30 sec): +++>; pourability ([1]; 5 ul added to 100 ul sputum, sample 1 (runny), 90 sec): +++>; pourability ([1]; 5 ul added to 100 ul sputum, sample 1 (runny), 150 sec): +++>; pourability ([1]; 5 ul added to 100 ul sputum, sample 1 (runny), time 0): +++>; pourability ([1]; 5 ul added to 100 ul sputum, sample 2 (intermediate), 30 sec): 0; pourability ([1]; 5 ul added to 100 ul sputum, sample 2 (intermediate), time 0): 0; pourability ([1]; 5 ul added to 100 ul sputum, sample 3 (heavy), 30 sec): 0; pourability ([1]; 5 ul added to 100 ul sputum, sample 3 (heavy), 5 min): +>; pourability ([1]; 5 ul added to 100 ul sputum, sample 3 (heavy), time 0): 0; pourability ([1]; 10 ul added to 100 ul sputum, sample 1 (runny), 30 sec): +++>; pourability ([1]; 10 ul added to 100 ul sputum, sample 1 (runny), 90 sec): +++>; pourability ([1]; 10 ul added to 100 ul sputum, sample 1 (runny), 150 sec): +++>; pourability ([1]; 10 ul added to 100 ul sputum, sample 1 (runny), time 0): +++>; pourability ([1]; 10 ul added to 100 ul sputum, sample 2 (intermediate), 30 sec): 0; pourability ([1]; 10 ul added to 100 ul sputum, sample 2 (intermediate), 150 sec): +>; pourability ([1]; 10 ul added to 100 ul sputum, sample 2 (intermediate), time 0): 0; pourability ([1]; 10 ul added to 100 ul sputum, sample 3 (heavy), 30 sec): 0; pourability ([1]; 10 ul added to 100 ul sputum, sample 3 (heavy), 5 min): ++>; pourability ([1]; 10 ul added to 100 ul sputum, sample 3 (heavy), time 0): 0; pourability ([1]; 50 ul added to 100 ul sputum, sample 1 (runny), 30 sec): +++>; pourability ([1]; 50 ul added to 100 ul sputum, sample 1 (runny), 90 sec): +++>; pourability ([1]; 50 ul added to 100 ul sputum, sample 1 (runny), 150 sec): +++>; pourability ([1]; 50 ul added to 100 ul sputum, sample 1 (runny), time 0): +++>; pourability ([1]; 50 ul added to 100 ul sputum, sample 2 (intermediate), 150 sec): ++>; pourability ([1]; 50 ul added to 100 ul sputum, sample 2 (intermediate), time 0): 0; pourability ([1]; 50 ul added to 100 ul sputum, sample 3 (heavy), 90 sec): +>; pourability ([1]; 50 ul added to 100 ul sputum, sample 3 (heavy), 150 sec): +>; pourability ([1]; 50 ul added to 100 ul sputum, sample 3 (heavy), 5 min): +++>; pourability ([1]; 50 ul added to 100 ul sputum, sample 3 (heavy), time 0): 0; pourability ([1]; 100 ul added to 100 ul sputum, sample 2 (intermediate), 90 sec): ++>; pourability ([1]; 100 ul added to 100 ul sputum, sample 2 (intermediate), 150 sec): +++>; pourability ([1]; 100 ul added to 100 ul sputum, sample 2 (intermediate), time 0): 0; pourability ([1]; 100 ul added to 100 ul sputum, sample 3 (heavy), 5 min): +++>; pourability ([1]; 100 ul added to 100 ul sputum, sample 3 (heavy), time 0): 0; time of maximal effectiveness in reducing sputum viscosity ([1]; following incubation): 5 min; FEV1 ([2]; Volunteer 1, 11 mM nebulized): 3.90; FVC ([2]; Volunteer 1, 11 mM nebulized): 4.66; FEV1 ([2]; Volunteer 1, 22 mM nebulized): 3.96; FVC ([2]; Volunteer 1, 22 mM nebulized): 4.82; FEV1 ([2]; Volunteer 2, 11 mM nebulized): 2.39; FVC ([2]; Volunteer 2, 11 mM nebulized): 3.48; FEV1 ([2]; Volunteer 2, 22 mM nebulized): 2.28; FVC ([2]; Volunteer 2, 22 mM nebulized): 3.40; FEV1 ([2]; Volunteer 3, 22 mM nebulized): 2.79; FVC ([2]; Volunteer 3, 22 mM nebulized): 2.84; irritation or other negative side effects ([2]; nebulization in three healthy volunteers): did not result in any irritation or other negative side effects

B1: alpha dornase: Pulmozyme® (dornase alfa or rhDNase), approved for treatment of CF (protein, UniProt P24855 23-282, looked up)
Deoxyribonuclease-1: LKIAAFNIQTFGETKMSNATLVSYIVQILSRYDIALVQEVRDSHLTAVGKLLDNLNQDAPDTYHYVVSEPLGRNSYKERYLFVYRPDQVSAVDSYYYDDGCEPCGNDTFNREPAIVRFFSRFTEVREFAIVPLHAAPGDAVAEIDALYDVYLDVQEKWGLEDVMLMGDFNAGCSYVRPSQWSSIRLWTSPTFQWLIPDSADTTATPTHCAYDRIVVAGMLLRGAVVPDSALPFNFQAAYGLSDQLAQAISDHYPVEVMLK
modifications: dornase alfa
notes: Pulmozyme® (dornase alfa or rhDNase), approved for treatment of CF
**Q.** Which “improvement in lung function (FEV1), average” value [3] does the source give for B1 here?
**A.** Its value is 9%.
